Reference: patent EP2272817A1, “PAI-1 INHIBITOR” (Institute of Medicinal Molecular Design, Inc., priority 2008, dated 2009)
Where two headings read alike, the source gives them in different places.

Experiments:
recombinant human PAI-1 [1] = target: T1, recombinant human PAI-1 (Homo sapiens, UniProt P05121); experiment: Test Example 4: Human PAI-1 Inhibitory Activity (amount of PAI-1 bound to plate-coated one-chain tPA, ELISA); type: biochemical; design: purchased Molecular Innovations, Inc; details: human PAI-1 bound to tPA, read-out: Inhibition Rate of PAI-1 Activity (%); for inhibition at 0.3 µM: Compound Concentration 0.3µM; for inhibition at 1 µM: Compound Concentration 1µM; for inhibition at 3 µM: Compound Concentration 3µM
Description: 100 µl of tPA solution, where one-chain recombinant tPA (hereinafter reffered to as tPA; American diagnostica, inc.) had been diluted with Buffer A to acheive a concentration of 10 µg/ml, was added to each well of a 96-well plate (Nunc Maxisorp), and the plate was incubated for one night at 4 °C to be coated with tPA. Then, after suction of tPA solution from the 96-well plate, the plate was rinsed successively with Buffer A and Buffer B. To Buffer B, solutions of the compound according to the present invention dissolved with DMSO (final DMSO concentration: 0.2 %) and recombinant human PAI-1 (Molecular Innovations, Inc.) were added. The mixtures were blended so that the final concentrations would be 0.1 to 3.0 µM and 50 ng/ml respectively, and were incubated for 15 minutes on ice. These mixed solutions were added to the rinsed 96-well plate at 100 µl/well, and incubated for 60 minutes at room temperature. To prepare a calibration curve, PAI-1 solutions without the compound according to the present invention (solutions where the final concentrations being 100, 50, 25, 12.5, 6.25, 3.13, or 1.56 ng/ml PAI-1) were added at 100 µl/well, and the plate was incubated for 60 minutes at room temperature, as standard.
After incubation, the reaction mixture was removed by suction, and each well was rinsed with Wash Buffer. Next, anti-human PAI-1 monoclonal antibody (PROGEN Inc.) diluted with Buffer C to be 3.0 µg/ml was added to the 96-well plate at 100 µl/well, and the plate was incubated for 1 hour at room temperature. After rinsing each well with Wash Buffer, alkaline phosphatase-labeled goat anti-mouse IgG (H+L) (Jackson ImmunoResearch, Inc.) diluted with Buffer D to be 0.12 µg/ml was added at 100 µl/well, and the plate was incubated for 1 hour at room temperature. After rinsing each well with Wash Buffer, 1.0 mg/ml p-Nitrophenyl Phosphate (SIGMA) was added to the 96-well plate at 100 µl/well to start the reaction. After 30 to 60 minutes, 25 µl of 0.5 N NaOH was added to stop the reaction, and the absorbance was measured at 405 nm using a multiplate reader (GENios; TECAN G.M.B.H.).
Based on the calibration curve prepared from the standard wells, amounts of PAI-1 bound to tPA in the wells that had been treated with the compound according to the present invention were calculated, and the PAI-1 inhibition rates by the compounds according to the present invention were obtained by the following equation. [API-1InhibitionRate(%)] = [1-(amountofPAI-1boundtotPaonthewellbytreatmentwiththecompondaccordingtothepresentinvention)/(amountofPAI-1boundtotPAonthewellbytreatmentwithPAI-1solutionnotincledingthecompondaccordingtotheinvention(solution having the final concentration of 50 nb/ml PAI-1)] × 100 [formula] • <Composition of Buffer A> 0.1 M Tris-HCl, 150 mM NaCl, pH 7.7 • <Composition of Buffer B> 50 mM sodium phosphate, 0.1 M NaCl, 1 mM EDTA, pH 6.6 • <Composition of Buffer C> 50 mM sodium phosphate, 100 mM NaCl, pH 7.4 • <Composition of Buffer D> 0.01 M Tris-HCl, 0.25 M NaCl, pH 8.0 • <Compositon of Wash Buffer> 0.05 % Tween 20, 0.1 % BSA in Buffer A • <Composition of p-Nitrophenyl Phosphate solution> 1 M Diethanolamine 0.5 mM MgCl2, p-Nitrophenyl phosphate, pH 9.8

recombinant human PAI-1 [2] = target: T1, recombinant human PAI-1; experiment: Test Example 2: Human PAI-1 Inhibitory Activity (pH 7.4 HEPES buffer, 10 minutes incubation with two-chain tPA); type: biochemical; design: purchased Molecular Innovations, Inc; details: read-out: Inhibition Rate of PAI-1 Activity (%)
Description: 0.1 M HEPES, 0.1 M NaCl. 1 mM EDTA. 0.1 % Polyethylene glycol 8,000 (Hampton Research Corporation),
2 mM Dimethyldecylphoshine oxide [Apo-10] (Fluka Corporation)

recombinant human PAI-1 [3] = target: T1, recombinant human PAI-1; experiment: biochemical
Description: To this solution, 6 µl of 80 nM recombinant human PAI-1 (Molecular Innovations, Inc.) solution prepared with Tris buffer was added, and the plate was incubated for 5 minutes at room temperature. Furthermore, 30 µl of 800 IU/ml two-chain tPA (Activity Standard; American diagnostica, inc.) prepared with Tris buffer was added, and the mixed solution was incubated for 15 minutes at room temperature. Then, 30 µl of 400 µM fluorogenic substrate (Pyr-Gly-Arg-MCA; Peptide Institute, Inc.) for tPA prepared with Tris buffer was added and reacted for 30 minutes at room temperature.
50 mM Tris, 150 mM NaCl, 10 µg/ml BSA, 0.01 % Tween80 (SIGMA-ALDRICH Corporation)

recombinant rat PAI-1 = target: T2, recombinant rat PAI-1 (Rattus norvegicus, UniProt P20961); experiment: biochemical; details: read-out: Inhibition Rate of PAI-1 Activity (%)
T2 sequence (P20961 24-402): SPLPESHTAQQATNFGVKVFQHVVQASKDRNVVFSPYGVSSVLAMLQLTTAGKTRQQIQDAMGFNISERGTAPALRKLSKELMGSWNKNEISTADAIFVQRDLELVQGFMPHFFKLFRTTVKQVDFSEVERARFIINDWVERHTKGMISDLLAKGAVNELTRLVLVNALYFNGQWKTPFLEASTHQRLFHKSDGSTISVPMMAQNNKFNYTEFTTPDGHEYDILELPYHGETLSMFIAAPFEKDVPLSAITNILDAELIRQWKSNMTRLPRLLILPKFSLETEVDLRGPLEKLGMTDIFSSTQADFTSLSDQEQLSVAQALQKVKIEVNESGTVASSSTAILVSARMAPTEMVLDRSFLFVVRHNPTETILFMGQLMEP

[4] = read-out: Inhibition Rate of PAI-1 Activity (%), Compound Concentration 5µM
[5] = read-out: Inhibition Rate of PAI-1 Activity (%), Compound Concentration 10µM
[6] = read-out: Inhibition Rate of PAI-1 Activity (%), Compound Concentration 25µM
[7] = read-out: Inhibition Rate of PAI-1 Activity (%)

T1 sequence (P05121 24-402): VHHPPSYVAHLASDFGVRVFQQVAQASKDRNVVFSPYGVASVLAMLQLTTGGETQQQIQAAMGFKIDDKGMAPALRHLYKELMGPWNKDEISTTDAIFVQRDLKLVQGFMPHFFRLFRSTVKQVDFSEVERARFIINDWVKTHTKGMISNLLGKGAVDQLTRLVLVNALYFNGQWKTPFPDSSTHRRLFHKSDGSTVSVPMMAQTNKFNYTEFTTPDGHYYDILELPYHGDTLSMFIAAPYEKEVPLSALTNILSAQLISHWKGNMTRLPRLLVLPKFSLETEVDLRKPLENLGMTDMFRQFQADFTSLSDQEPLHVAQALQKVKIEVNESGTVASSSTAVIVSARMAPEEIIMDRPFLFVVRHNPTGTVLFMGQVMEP

Row | inhibition at 5 µM (recombinant human PAI-1 [3]; [7]) | inhibition at 10 µM (recombinant human PAI-1 [3]; [7]) | inhibition at 25 µM (recombinant human PAI-1 [3]; [7]) | Compound | inhibition at 0.3 µM (recombinant human PAI-1 [1]) | inhibition at 1 µM (recombinant human PAI-1 [1]) | inhibition at 3 µM (recombinant human PAI-1 [1]) | inhibition at 0.1 µM (recombinant human PAI-1 [2]) | inhibition at 0.3 µM (recombinant human PAI-1 [2]) | inhibition at 1 µM (recombinant human PAI-1 [2]) | inhibition at 3 µM (recombinant human PAI-1 [2]) | inhibition at 5 µM (recombinant human PAI-1 [3]; [4]) | inhibition at 10 µM (recombinant human PAI-1 [3]; [5]) | inhibition at 25 µM (recombinant human PAI-1 [3]; [6]) | inhibition at 0.3 µM (recombinant rat PAI-1) | inhibition at 1 µM (recombinant rat PAI-1) | inhibition at 3 µM (recombinant rat PAI-1) | inhibition at 10 µM (recombinant rat PAI-1)
1 | – | – | – | CC(C)(C)c1ccc(CN(C(=O)C(=O)O)c2ccc(Oc3ccc(OC(F)(F)F)cc3)cc2C(F)(F)F)cc1 [Compound 174] | 0% | 7% | 32% | 0% | 0% | 26% | 96% | 61% | 92% | 91% | 0% | 11% | 76% | 94%
2 | – | – | – | CCC(CC)Oc1ccc(-c2ccc(OC(F)(F)F)cc2)cc1N(Cc1ccc(C(C)(C)C)cc1)C(=O)C(=O)O [Compound 199] | 18% | 41% | 73% | 9% | 13% | 64% | > 99% | 83% | 89% | – | 0% | 35% | 97% | > 99%
3 | – | – | – | CC(C)(C)c1ccc(CN(C(=O)C(=O)O)c2ccc(Cl)c(-c3ccc(OC(F)(F)F)cc3)c2)cc1 [Compound 186] | 15% | 37% | 53% | 0% | 9% | 22% | > 99% | 76% | 91% | – | 2% | 27% | 83% | 89%
4 | – | – | – | CCCCC(c1ccc(C(C)(C)C)cc1)N(C(=O)C(=O)O)c1ccc(-c2ccc(OC(F)(F)F)cc2)cc1 (stereo not drawn) [Compound 221] | 0% | 13% | 38% | 0% | 6% | 55% | > 99% | 80% | 86% | – | 10% | 37% | 89% | –
5 | – | – | – | CC(C)(C)c1ccc(COc2cc(Oc3ccc(OC(F)(F)F)cc3)ccc2CCC(=O)O)cc1 [Compound 78] | 20% | 39% | 83% | 0% | 4% | 21% | 96% | 24% | 60% | 98% | 0% | 4% | 71% | 90%
6 | – | – | – | CCCCCOc1ccc(-c2ccc(OC(F)(F)F)cc2)cc1N(Cc1ccc(C(C)(C)C)cc1)C(=O)C(=O)O [Compound 194] | 6% | 22% | 56% | 0% | 7% | 63% | 98% | 84% | 84% | – | 5% | 39% | 98% | > 99%
7 | 34% | 82% | 95% | CC(C)(C)c1ccc(Oc2cc(-c3ccc(OC(F)(F)F)cc3)ccc2OCC(=O)O)cc1 [Compound 112] | 0% | 6% | 36% | 0% | 19% | 56% | > 99% | – | – | – | 0% | 14% | 75% | 96%
8 | – | – | – | O=C(O)CCc1cc(-c2ccc(OC(F)(F)F)cc2)ccc1OCCCCc1ccccc1 [Compound 102] | 0% | 0% | 83% | 0% | 7% | 28% | 94% | 43% | 74% | 97% | 0% | 12% | 55% | 93%
9 | – | – | – | CC(C)(C)c1ccc(CN(C(=O)C(=O)O)c2cccc(-c3ccc(OC(F)(F)F)cc3)c2)cc1 [Compound 130] | 1% | 3% | 15% | 0% | 2% | 18% | 84% | 82% | 96% | – | 1% | 16% | 50% | > 99%
10 | – | – | – | CC(C)(Oc1cccc(-c2ccc(OC(F)(F)F)cc2)c1OCc1ccc(C(C)(C)C)cc1)C(=O)O [Compound 118] | 0% | 4% | 46% | 0% | 6% | 49% | > 99% | 56% | 82% | 93% | 0% | 16% | 77% | 93%
11 | – | – | – | CCCCCOc1ccc(-c2ccc(OC(F)(F)F)cc2)cc1N(CCCCc1ccccc1)C(=O)C(=O)O [Compound 226] | 11% | 26% | 65% | 0% | 17% | 89% | 99% | 85% | 92% | – | 9% | 49% | 92% | > 99%
